Where “and” joins values, the source holds several entries; their conditions need not be identical. Identical values can stand only once. Entries after “also recorded” stand apart in the source; their conditions may differ. Like-named read-outs stand apart in the source and are kept apart here.
What was measured:
[1] = test system: osteoclast precursors in mouse bone marrow; settings: for Relative TRAP 5b activities, Mean ± SD: relative to mean of baseline group; for Combined results on osteoclast differentiation (relative TRAP 5b activity), Mean ± SD: tables 4-6 combined, number 18 (LA 100) or 12
From the text: A method known as mouse bone marrow culture system is the one most widely used to study osteoclast differentiation. Originally, this method was developed by Takahashi et al. (1988a). Osteoclast precursors in mouse bone marrow can be induced to form multinucleated osteoclast-like cells (MNC) in the presence of either an active metabolite of vitamin D3 (1,25(OH)2D3) or parathyroid hormone (PTH). […] They form pits on bone or dentine slices (Takahashi et al. 1988a, Hattersley and Chambers 1989, Shinar et al. 1990); they express high levels of tartrate-resistant acid phosphatase (TRAP) and calcitonin receptors (Takahashi et al. 1988b, Shinar et al. 1990); and they respond to calcitonin (Takahashi et al. 1988a) and prostaglandin E2 (Collins and Chambers 1992). Thus, the method is an ideal one with which to study both stimulators and inhibitors of osteoclast differentiation.
In the original culture system, the osteoclast formation was determined after an 8-day culture. In bone marrow, both non-adherent osteoclast precursors and stromal cells are present, the latter of which are needed to support osteoclast formation. The number of osteoclasts formed is generally determined by counting the number of TRAP-positive MNC containing at least three nuclei (Takahashi et al. 1988a).
We have modified the original assay so that we culture 1×10^6 mouse marrow cells/ml for 6 days. […] Instead of counting of the number of differentiated osteoclasts formed, we measured the amount of TRAP liberated from osteoclasts into the culture medium using a fast, simple TRAP immunoassay (Halleen et al. 1999) presentation in the Annual Meeting of the American Society for Bone and Mineral Research, Sep. 30-Oct. 4, 1999, in St. Louis, Mo., USA.
8-10-week old mice were killed with CO2. Tibia and femora were dissected free from adhering soft tissues. The bone ends were cut off with a scalpel and the marrow was flushed with α-Minimal Essential Medium (α-MEM, Gibco BRL, Paisley, UK) supplemented with 100 IU/ml penicillin and 100 μg/ml streptomycin. A 10 ml syringe with a 27 gauge needle was used for flushing. Cells were centrifuged at 600×G for 10 minutes and the cell pellet was resuspended in -MEM containing 10% fetal calf serum. Cells were allowed to attach to plastic for 2 h at 37° C. in a 5% CO2 incubator to allow removal of monocytes and macrophages. Nonadherent cells were duly removed, and the […] bone marrow cells were cultured in 24-well plates (1×10^6 cells/well=1 ml) for 6 days. Half of the media were changed at day 3 and the treatments replaced. At the end of the culture, the plates were fixed with 2% paraformaldehyde in PBS for 20 minutes. Osteoclast formation was determined by measuring TRAP activity from the culture media using the novel TRAP immunoassay (vide infra), where we use a polyclonal TRAP antiserum prepared in rabbits against purified human bone TRAP. The TRAP antibody was bound to anti-rabbit IgG coated microtiter wells (Gibco BRL, Paisley, UK), and medium TRAP was then bound to the antibody. The activity of bound TRAP was measured in sodium acetate buffer using pNPP as substrate.
In this study, the effect of the lanthanum (III) ion on osteoclast differentiation in the presence of 1,25-dihydroxyvitamin D3 was tested. The following sample groups were included: • Baseline (including vehicle) • Control (Baseline without 1,25-dihydroxyvitamin D3) • Baseline+100 ng/ml lanthanum • Baseline+500 ng/ml lanthanum • Baseline+1000 ng/ml lanthanum • Baseline+5000 ng/ml lanthanum • Baseline+15000 ng/ml lanthanum
Six replicates were included in each group, and the test was performed twice. Baseline without 1,25-dihydroxyvitamin D3 was used as a control to show the test system allows inhibition of osteoclast differentiation to be detected.

mature osteoblasts = test: In vitro bone formation assay (calcium deposition into bone nodules); assay type: cell-based, mouse; settings: LA number = ng/ml lanthanum; for Effect on bone formation activity of mature osteoblasts, in words: lanthanum (III) / lanthanum (III) ion = all concentrations tested, 100 to 15,000 ng/ml, 17-estradiol 10^−10M; for Calcium deposition, Mean ± SD / Calcium deposition, replicates 1-6 / Calcium deposition, replicates 1-4 / Calcium deposition, replicates 1-8: calcium released from bone nodules after HCl extraction; for Calcium deposition, Mean ± SD / Calcium deposition, replicates 1-6 / Calcium deposition, replicates 1-4 / Calcium deposition, replicates 1-8 / Combined results on bone formation activity of mature osteoblasts (calcium released), Mean ± SD: Control = Baseline+10^−10M 17β-estradiol; for Combined results on bone formation activity of mature osteoblasts (calcium released), Mean ± SD: tables 13 and 14 combined, number 14
Method: The activity of mature osteoblasts can be determined by quantifying their ability to form mineralized bone matrix. This is done by demineralizing the formed bone matrix, and determining the amount of calcium released. Thus, this culture system fulfills requirements of an in vitro model useful for studying the bone formation activity of mature osteoblasts. […] At the end of the culture, the amount of calcium deposited during the culture period was determined, and the amount of bone formation (calcium deposition) calculated. […] Extracts of 50 μl were complexed with 1 ml determined o-cresol-phthalein-complexon. The colorimetric reaction was determined at 570 nm in a spectrophotometer. Absolute calcium concentrations were determined by comparison with a calibrated standard provided by the vendor. In this study, the effect of lanthanum carbonate on bone formation was tested. […] The amount of bone formation was determined by measuring the amount of calcium deposited into bone nodules formed by mature osteoblasts. The results are shown as the amount of calcium released (mmol/L) from the bone nodules after HCl extraction. The baseline values are too low to show the results using relative amounts as was done in the other assays.

[2] = test system: mouse bone marrow derived osteoprogenitor cells; test: In vitro osteoblast differentiation assay (cellular alkaline phosphatase); assay type: cell-based; settings: LA number = ng/ml lanthanum; for Effect on osteoblast differentiation, in words: lanthanum (III) ion = 100-15000 ng/ml, 17-estradiol 10^−10 M; for Relative specific activities of intracellular alkaline phosphatase, Mean ± SD / Relative specific activities of intracellular alkaline phosphatase, replicates 1-8 / Relative specific activities of intracellular alkaline phosphatase, replicates 1-4 / Relative specific activities or intracellular alkaline phosphatase, Mean ± SD / Relative specific activities or intracellular alkaline phosphatase, replicates 1-6: relative to mean of baseline group, 8 days; for Relative specific activities of intracellular alkaline phosphatase, Mean ± SD / Relative specific activities of intracellular alkaline phosphatase, replicates 1-8 / Relative specific activities of intracellular alkaline phosphatase, replicates 1-4 / Relative specific activities or intracellular alkaline phosphatase, Mean ± SD / Relative specific activities or intracellular alkaline phosphatase, replicates 1-6 / Combined results on osteoblast differentiation (relative specific ALP activity), Mean ± SD: Control = Baseline+10^−10 M 17-estradiol; for Relative specific activities or intracellular alkaline phosphatase, Mean ± SD / Relative specific activities or intracellular alkaline phosphatase, replicates 1-6: second osteoblast differentiation assay; for Combined results on osteoblast differentiation (relative specific ALP activity), Mean ± SD: tables 8-10 combined, number 18
From the text: We have established a culture model in which mouse bone marrow derived osteoprogenitor cells first proliferate and then differentiate to osteoblasts capable of forming mineralized bone nodules (Qu et al. 1998, Qu et al. 1999). We confirmed this by following the expression of several markers of the osteoblastic phenotype and by studying the morphology of cultures at light and electron microscopic level. […] Thus, this culture system fulfills requirements of an in vitro model useful for studying differentiation of osteoprogenitor cells into bone synthesizing osteoblasts. […] Animals were killed by cervical dislocation. Both femora were removed and the soft tissues were detached aseptically. Metaphyses from both ends were cut off and bone marrow cells were collected by flushing the diaphysis with culture medium: phenol red-free-α-modified essential medium (α-MEM (Gibco BRL, Paisley, UK)). […] The cells were cultured for 6 days and half of the media […] days. […] Cells were washed with warm PBS and adherent cells were detached using trypsin-EDTA. […] The test substances were added at the beginning of the secondary culture without estrogen, and every time when the medium was changed. The number of osteoblasts formed was determined by measuring cellular alkaline phosphatase (ALP) activity in the culture. […] Louis, Mo., USA), and overnight freezing. ALP activity was determined colorimetrically using p-nitrophenylphosphate as substrate at pH 9.7 and determining the optical density at 405 nm. In parallel, protein contents of the wells were determined by the BIO-RAD protein assay, and the specific ALP activity is expressed as units/mg protein. […] Osteoblast differentiation was determined by measuring cellular alkaline phosphatase (ALP) activities and total protein amounts from cell lysates. The ALP activities were divided with the corresponding protein amounts to obtain specific activities of ALP. The results are shown as relative specific activities obtained by dividing each individual value with the mean value of the baseline group.

[3] = first osteoclast differentiation assay, with 1,25-dihydroxyvitamin D3, 6 days, LA number = ng/ml lanthanum
[4] = second osteoclast differentiation assay, with 1,25-dihydroxyvitamin D3, 6 days, LA number = ng/ml lanthanum
[5] = preliminary bone formation assay
[6] = first osteoblast differentiation assay
[7] = preliminary osteoblast differentiation assay

`O.O.O.O.O=C([O-])[O-].O=C([O-])[O-].O=C([O-])[O-].[La+3].[La+3]` [LA 100, lanthanum carbonate tetrahydrate] was tested, and the “Relative TRAP 5b activities, Mean ± SD” value [1, 3] was 0.87 ± 0.33, the “Relative TRAP 5b activities, Mean ± SD” value [1, 4] was 0.54 ± 0.15(**) and the “Combined results on osteoclast differentiation (relative TRAP 5b activity), Mean ± SD” value ([1]; LA number = ng/ml lanthanum) was 0.70 ± 0.27 (**). For the same compound, the “Relative TRAP 5b activities, Mean ± SD” value ([1]; third osteoclast differentiation assay with LA 100 (100 ng/ml lanthanum)) was 0.69 ± 0.21(*), the “Effect on bone formation activity of mature osteoblasts, in words” value (mature osteoblasts) was “activate both bone formation and osteoblast differentiation” and the “Calcium deposition, Mean ± SD” value (mature osteoblasts; first bone formation assay) was 0.11 ± 0.11 mmol/L. The “Calcium deposition, replicates 1-6” value (mature osteoblasts; first bone formation assay) was 0.04 mmol/L and 0.17 mmol/L and 0.01 mmol/L and 0.27 mmol/L and 0 mmol/L and 0.14 mmol/L, the “Calcium deposition, Mean ± SD” value (mature osteoblasts; [5]) was 0.00 ± 0.00 mmol/L and the “Calcium deposition, replicates 1-4” value (mature osteoblasts; [5]) was 0 mmol/L. The “Calcium deposition, Mean ± SD” value (mature osteoblasts; second bone formation assay) was 0.08 ± 0.11 mmol/L, the “Calcium deposition, replicates 1-8” value (mature osteoblasts; second bone formation assay) was 0 mmol/L (4×) and 0.28 mmol/L and 0.14 mmol/L and the “Combined results on bone formation activity of mature osteoblasts (calcium released), Mean ± SD” value (mature osteoblasts) was 0.09 ± 0.10 mmol/L. For the same compound, the “Effect on osteoblast differentiation, in words” value [2] was “activated osteoblast differentiation significantly; also recorded: activate both bone formation and osteoblast differentiation”, the “Relative specific activities of intracellular alkaline phosphatase, Mean ± SD” value [2, 6] was 1.05 ± 0.17 and the “Relative specific activities of intracellular alkaline phosphatase, replicates 1-8” value [2, 6] was 0.95 and 1.04 and 0.98. The “Relative specific activities of intracellular alkaline phosphatase, Mean ± SD” value [2, 7] was 1.15 ± 0.13, the “Relative specific activities of intracellular alkaline phosphatase, replicates 1-4” value [2, 7] was 0.98 and 1.29 and 1.19 and 1.12 and the “Relative specific activities or intracellular alkaline phosphatase, Mean ± SD” value [2] was 1.14 ± 0.22. For the same compound, the “Relative specific activities or intracellular alkaline phosphatase, replicates 1-6” value [2] was 0.91 and 0.94 and 1.34 and 1.20 and 1.00 and 1.43 and the “Combined results on osteoblast differentiation (relative specific ALP activity), Mean ± SD” value [2] was 1.10 ± 0.18 (*).

For `O.O.O.O.O=C([O-])[O-].O=C([O-])[O-].O=C([O-])[O-].[La+3].[La+3]` [LA 500, lanthanum carbonate tetrahydrate], the “Relative TRAP 5b activities, Mean ± SD” value [1, 3] was 0.71 ± 0.22, the “Relative TRAP 5b activities, Mean ± SD” value [1, 4] was 1.07 ± 0.24 and the “Combined results on osteoclast differentiation (relative TRAP 5b activity), Mean ± SD” value ([1]; LA number = ng/ml lanthanum) was 0.89 ± 0.29. The “Effect on bone formation activity of mature osteoblasts, in words” value (mature osteoblasts) was “stimulate bone formation”, the “Calcium deposition, Mean ± SD” value (mature osteoblasts; first bone formation assay) was 0.77 ± 0.54 mmol/L and the “Calcium deposition, replicates 1-6” value (mature osteoblasts; first bone formation assay) was 0.44 mmol/L and 0.15 mmol/L and 1.32 mmol/L and 0.27 mmol/L and 1.31 mmol/L and 1.10 mmol/L. The “Calcium deposition, Mean ± SD” value (mature osteoblasts; [5]) was 0.02 ± 0.05 mmol/L, the “Calcium deposition, replicates 1-4” value (mature osteoblasts; [5]) was 0 mmol/L (3×) and 0.09 mmol/L and the “Calcium deposition, Mean ± SD” value (mature osteoblasts; second bone formation assay) was 0.62 ± 0.61 mmol/L. The “Calcium deposition, replicates 1-8” value (mature osteoblasts; second bone formation assay) was 0 mmol/L and 0.02 mmol/L and 0.46 mmol/L and 1.17 mmol/L, the “Combined results on bone formation activity of mature osteoblasts (calcium released), Mean ± SD” value (mature osteoblasts) was 0.68 ± 0.56 mmol/L and the “Effect on osteoblast differentiation, in words” value [2] was “No significant response; also recorded: do not decrease the formulation of osteoblasts”. For the same compound, the “Relative specific activities of intracellular alkaline phosphatase, Mean ± SD” value [2, 6] was 0.90 ± 0.14, the “Relative specific activities of intracellular alkaline phosphatase, replicates 1-8” value [2, 6] was 0.95 and 0.96 and 0.62 and the “Relative specific activities of intracellular alkaline phosphatase, Mean ± SD” value [2, 7] was 1.01 ± 0.07. For the same compound, the “Relative specific activities of intracellular alkaline phosphatase, replicates 1-4” value [2, 7] was 0.96 and 0.98 and 0.99 and 1.11, the “Relative specific activities or intracellular alkaline phosphatase, Mean ± SD” value [2] was 0.93 ± 0.14 and the “Relative specific activities or intracellular alkaline phosphatase, replicates 1-6” value [2] was 0.88 and 0.89 and 1.10 and 1.09 and 0.75 and 0.90. For the same compound, the “Combined results on osteoblast differentiation (relative specific ALP activity), Mean ± SD” value [2] was 0.94 ± 0.13.

Source: US7078059B2, “Treatment of bone diseases” (Shire Holdings AG, priority 2000, dated 2006)
